In ChEMBL document CHEMBL1201862, “PubChem BioAssay data set” (2004):
Calls of active or inactive are those of the source.

Key:
[1] = biological target: G-protein coupled receptor 55 (Homo sapiens, UniProt Q9Y2T6); assay: GPR55 antagonists blocking LPI-driven arrestin recruitment, primary screen, imaging, U2OS, beta-arrestin-GFP, LPI agonist (AID 2013); format: functional;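 note: antagonist potency measured as reduced agonist-driven arrestin aggregation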
[2] = biological target: T1, Ubiquitin-conjugating enzyme E2 N (Homo sapiens, UniProt P61088); format: functional
T1 sequence (P61088 whole entry): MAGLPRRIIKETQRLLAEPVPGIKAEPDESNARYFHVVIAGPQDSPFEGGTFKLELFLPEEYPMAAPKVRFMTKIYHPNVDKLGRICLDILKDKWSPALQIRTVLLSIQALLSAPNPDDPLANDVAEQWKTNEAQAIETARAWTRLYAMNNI

Bcl-2-related protein A1 = biological target: T2, Bcl-2-related protein A1 (Mus musculus, UniProt Q07440); format: functional;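 note: confirmatory dose–response counterscreen on Bfl-1, used to check hits from a UBC13 polyubiquitin inhibitor campaign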
T2 sequence (Q07440 whole entry): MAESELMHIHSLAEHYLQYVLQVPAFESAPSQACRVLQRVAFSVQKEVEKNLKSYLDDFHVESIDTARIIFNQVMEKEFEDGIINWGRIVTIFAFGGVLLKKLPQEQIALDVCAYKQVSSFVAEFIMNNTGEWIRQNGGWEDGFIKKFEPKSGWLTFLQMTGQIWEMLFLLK

[3] = biological target: T1, Ubiquitin-conjugating enzyme E2 N; format: functional; remark: listed apart in the source
[4] = biological target: Peroxisome proliferator-activated receptor gamma/Nuclear receptor coactivator 2 (Homo sapiens, UniProt P37231); assay: (§1) TR-FRET dose response biochemical High Throughput Screening assay for agonists of the steroid receptor coactivator 2 (SRC-2) recruitment by the peroxisome proliferator-activated receptor gamma (PPAR gamma): non-selective agonists. [Related pubchem assays: 1297, 1032 ]; format: functional
[5] = biological target: Peroxisome proliferator-activated receptor gamma/Nuclear receptor coactivator 3 (Homo sapiens, UniProt P37231); assay: as §1, with “3 (SRC-3)” for “2 (SRC-2)”, “1301 (Confirmation screen.), 1048 (Primary screen.)]” for “1297, 1032 ]”; format: functional
[6] = biological target: Peroxisome proliferator-activated receptor gamma/Nuclear receptor coactivator 1 (Homo sapiens, UniProt P37231); assay: as §1, with “1 (SRC-1)” for “2 (SRC-2)”, “assays (depositor defined):AID1300, AID1808, AID504735, AID631]” for “assays: 1297, 1032 ]”; format: protein assay
Vero = assay: cells; format: functional, cell-based; details: Chlorocebus sabaeus
[7] = growth suppression of PTEN-null colon cells, dose response, cell-based, HCT116 PTEN knockout (AID 1047); format: functional;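 note: HCT116 colon tumor cells with PTEN knocked out; cells exposed to compound for 60 hours before readout; potency for loss of cell viability measured by luminescence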
[8] = growth suppression of beta-catenin-knockout colon cells, dose response, cell-based, HCT116, human colon tumor (AID 1045); format: functional;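 note: HCT116 colon tumor cells with beta catenin knocked out; cells exposed to compound for 60 hours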
[9] = inhibitors of intracellular T. cruzi replication, confirmation, NIH3T3 host cells, beta-gal luminescence (AID 2044); format: functional, cell-based;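 note: intracellular parasites grown in NIH/3T3 mouse fibroblasts as host cells; luminescent beta-galactosidase reporter signal from transgenic T. cruzi replicating inside host cells; inhibitors lower the luminescence signal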
[10] = cytotoxicity toward NIH3T3 fibroblasts, dose response, counter-screen, cell-based, ATP luminescence, mouse fibroblasts (AID 2010); format: functional;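 note: cells exposed to compound for about 90 hours before reading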
Streptococcus = assay: Group A Streptococcus viability loss, dose response, counter-screen for streptokinase expression inhibitor project, luminescence, BacTiterGlo (AID 1915); format: functional, organism-based;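 note: potency for reduction of bacterial viability or growth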
Streptokinase A = biological target: T3, Streptokinase A (Streptococcus pyogenes serotype M1, UniProt P10520); assay: S. pyogenes streptokinase expression inhibitors, potency, dose response, plasminogen activation absorbance, OD405 (AID 1914); format: functional, Streptococcus pyogenes M1 GAS;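 note: secreted streptokinase activity via plasminogen activation per viability signal from cell pellet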
T3 sequence (P10520 whole entry): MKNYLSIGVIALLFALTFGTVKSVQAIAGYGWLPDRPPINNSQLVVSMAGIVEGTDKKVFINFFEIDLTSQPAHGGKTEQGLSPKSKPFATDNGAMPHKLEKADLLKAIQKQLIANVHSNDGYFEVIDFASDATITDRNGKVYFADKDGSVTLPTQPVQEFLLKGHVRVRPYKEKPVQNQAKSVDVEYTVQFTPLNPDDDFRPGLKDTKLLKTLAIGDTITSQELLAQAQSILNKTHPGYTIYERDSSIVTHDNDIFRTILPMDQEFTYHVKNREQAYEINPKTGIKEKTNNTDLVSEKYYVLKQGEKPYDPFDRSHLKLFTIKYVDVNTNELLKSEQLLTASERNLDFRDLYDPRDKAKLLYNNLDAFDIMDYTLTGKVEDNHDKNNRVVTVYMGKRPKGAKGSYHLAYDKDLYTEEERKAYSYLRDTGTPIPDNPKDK

[11] = system: Streptococcus sp. 'group A'; assay: growth inhibition of control SK(-) GAS strain, dose response, counter-screen for streptokinase expression inhibitor project, luminescence, kanamycin, BacTiterGlo, confirmation (AID 1900); format: functional, organism-based
Fatty acid synthase = Fatty acid synthase (Homo sapiens, UniProt P49327); assay: FAS thioesterase domain inhibitors, dose response, biochemical, kinetic fluorescence intensity (AID 624326); format: functional;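 note: rate of fluorescence rise from hydrolysis of a fluorogenic O-methyl fluorescein ester substrate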
H9c2 = assay: cells; format: functional, cell-based; details: Rattus norvegicus, H9c2, Myocardium;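 note: confirmatory concentration-response retest of ultra-high-throughput screening hits for modulation of myocardial damage; cell death induced by hydrogen peroxide oxidative stress; compound pretreatment for 60 min then peroxide exposure for 2 h; potency is for protecting the cells against peroxide damage rather than for killing them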
Hexokinase = biological target: T4, Hexokinase (Trypanosoma brucei, UniProt Q38C41); assay: Confirmation assay for inhibitors of Trypanosoma brucei hexokinase 1-Analogue-first series. [Related pubchem assays (depositor defined):AID1430, AID1632, AID2516, AID2560, AID2579, AID2600, AID449725, AID492951]; format: functional
T4 sequence (Q38C41 whole entry): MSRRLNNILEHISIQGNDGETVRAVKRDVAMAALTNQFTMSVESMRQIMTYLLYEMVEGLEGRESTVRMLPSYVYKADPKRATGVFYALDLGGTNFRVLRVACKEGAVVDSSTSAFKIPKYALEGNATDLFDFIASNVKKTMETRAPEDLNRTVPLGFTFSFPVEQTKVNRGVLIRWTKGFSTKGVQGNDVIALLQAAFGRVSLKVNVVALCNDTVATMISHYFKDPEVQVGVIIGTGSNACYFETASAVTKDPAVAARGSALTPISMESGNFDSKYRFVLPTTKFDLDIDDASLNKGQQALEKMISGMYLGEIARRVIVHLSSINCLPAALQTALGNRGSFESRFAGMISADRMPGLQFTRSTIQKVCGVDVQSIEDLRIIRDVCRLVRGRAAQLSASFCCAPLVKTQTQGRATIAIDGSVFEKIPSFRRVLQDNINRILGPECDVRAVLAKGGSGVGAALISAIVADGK

[12] = biological target: T5, Alkaline phosphatase, tissue-nonspecific isozyme (Homo sapiens, UniProt P05186); assay: human TNAP enzyme inhibitors, SAR follow-up, biochemical, luminescent, dose response (AID 1056)
T5 sequence (P05186 whole entry): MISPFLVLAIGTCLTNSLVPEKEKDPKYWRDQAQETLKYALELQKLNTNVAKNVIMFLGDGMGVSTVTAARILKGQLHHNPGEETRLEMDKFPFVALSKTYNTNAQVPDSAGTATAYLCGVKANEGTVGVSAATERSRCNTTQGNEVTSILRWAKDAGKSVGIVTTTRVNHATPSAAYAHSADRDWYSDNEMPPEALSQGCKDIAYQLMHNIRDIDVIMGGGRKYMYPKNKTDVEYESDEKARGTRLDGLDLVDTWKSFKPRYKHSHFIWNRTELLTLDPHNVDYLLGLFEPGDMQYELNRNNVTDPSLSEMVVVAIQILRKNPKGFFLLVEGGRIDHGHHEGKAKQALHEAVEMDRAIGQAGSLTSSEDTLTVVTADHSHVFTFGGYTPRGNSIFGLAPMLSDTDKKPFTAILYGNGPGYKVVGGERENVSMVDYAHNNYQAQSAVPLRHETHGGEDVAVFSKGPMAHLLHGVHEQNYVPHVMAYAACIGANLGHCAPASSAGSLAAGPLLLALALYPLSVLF

Hexokinase-1 = biological target: T6, Hexokinase-1 (Homo sapiens, UniProt P19367); assay: hexokinase 1 activators, dose response, selectivity assay for HKDC1 activator project, biochemical (AID 504762); format: functional
T6 sequence (P19367 whole entry): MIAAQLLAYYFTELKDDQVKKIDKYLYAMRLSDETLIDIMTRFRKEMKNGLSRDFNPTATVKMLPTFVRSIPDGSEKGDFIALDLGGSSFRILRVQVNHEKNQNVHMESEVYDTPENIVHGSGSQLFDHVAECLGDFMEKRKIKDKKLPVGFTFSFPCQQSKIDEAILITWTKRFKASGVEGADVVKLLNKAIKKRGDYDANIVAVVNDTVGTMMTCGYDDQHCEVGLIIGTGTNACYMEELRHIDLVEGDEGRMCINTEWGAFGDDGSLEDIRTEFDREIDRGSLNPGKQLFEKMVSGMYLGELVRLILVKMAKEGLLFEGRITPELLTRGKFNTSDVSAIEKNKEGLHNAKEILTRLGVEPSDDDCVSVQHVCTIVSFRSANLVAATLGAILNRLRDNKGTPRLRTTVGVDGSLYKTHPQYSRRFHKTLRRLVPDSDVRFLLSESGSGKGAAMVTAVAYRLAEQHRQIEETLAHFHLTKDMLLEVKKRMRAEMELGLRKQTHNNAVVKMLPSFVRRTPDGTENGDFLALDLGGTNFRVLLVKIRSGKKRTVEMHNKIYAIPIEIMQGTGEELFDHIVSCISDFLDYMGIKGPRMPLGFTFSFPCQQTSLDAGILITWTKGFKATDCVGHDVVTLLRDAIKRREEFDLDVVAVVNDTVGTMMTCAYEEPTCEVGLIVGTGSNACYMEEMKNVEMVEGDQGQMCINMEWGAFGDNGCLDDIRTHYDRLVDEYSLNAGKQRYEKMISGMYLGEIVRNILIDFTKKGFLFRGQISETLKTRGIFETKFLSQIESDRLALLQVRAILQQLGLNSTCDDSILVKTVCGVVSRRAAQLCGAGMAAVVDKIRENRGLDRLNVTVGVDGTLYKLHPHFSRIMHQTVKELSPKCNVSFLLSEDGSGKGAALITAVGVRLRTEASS

Hexokinase HKDC1 = biological target: T7, Hexokinase HKDC1 (Homo sapiens, UniProt Q2TB90); assay: HKDC1 hexokinase activators, dose response, biochemical, W721R variant (AID 504730); format: functional
T7 sequence (Q2TB90 whole entry): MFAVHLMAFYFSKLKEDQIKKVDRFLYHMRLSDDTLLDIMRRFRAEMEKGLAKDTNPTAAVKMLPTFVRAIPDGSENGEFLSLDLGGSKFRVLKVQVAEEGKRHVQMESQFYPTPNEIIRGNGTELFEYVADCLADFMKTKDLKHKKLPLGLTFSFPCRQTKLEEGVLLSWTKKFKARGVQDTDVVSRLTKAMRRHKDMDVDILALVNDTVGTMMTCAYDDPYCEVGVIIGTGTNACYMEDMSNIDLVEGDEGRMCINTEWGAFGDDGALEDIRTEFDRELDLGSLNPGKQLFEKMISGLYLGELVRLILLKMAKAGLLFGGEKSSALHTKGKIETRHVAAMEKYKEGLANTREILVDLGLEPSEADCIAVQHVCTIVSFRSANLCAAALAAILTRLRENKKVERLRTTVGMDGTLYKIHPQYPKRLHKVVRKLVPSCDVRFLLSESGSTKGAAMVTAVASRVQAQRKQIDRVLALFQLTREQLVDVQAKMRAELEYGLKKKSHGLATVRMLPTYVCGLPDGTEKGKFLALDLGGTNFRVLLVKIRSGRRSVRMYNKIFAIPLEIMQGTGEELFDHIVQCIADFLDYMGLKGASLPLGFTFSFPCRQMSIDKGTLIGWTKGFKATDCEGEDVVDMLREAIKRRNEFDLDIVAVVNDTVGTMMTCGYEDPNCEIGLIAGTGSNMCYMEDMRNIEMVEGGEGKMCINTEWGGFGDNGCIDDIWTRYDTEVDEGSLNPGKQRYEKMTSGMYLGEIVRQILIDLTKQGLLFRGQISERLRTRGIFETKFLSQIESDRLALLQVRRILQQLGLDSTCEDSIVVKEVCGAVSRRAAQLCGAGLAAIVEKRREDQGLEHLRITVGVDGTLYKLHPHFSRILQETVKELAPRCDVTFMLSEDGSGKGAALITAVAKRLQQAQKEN

Nonstructural protein 1 = Nonstructural protein 1 (Influenza A virus, UniProt Q194T2); format: functional, Influenza A virus (A/California/07/2009(H1N1))
Sequence of Nonstructural protein 1 (Q194T2 whole entry): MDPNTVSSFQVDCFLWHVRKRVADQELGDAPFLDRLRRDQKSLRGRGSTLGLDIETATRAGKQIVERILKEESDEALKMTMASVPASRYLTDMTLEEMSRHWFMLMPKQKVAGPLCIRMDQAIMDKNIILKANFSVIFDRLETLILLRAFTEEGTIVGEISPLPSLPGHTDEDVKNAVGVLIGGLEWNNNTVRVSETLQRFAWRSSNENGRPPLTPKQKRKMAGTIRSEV

Sequence of G-protein coupled receptor 55 (Q9Y2T6 whole entry): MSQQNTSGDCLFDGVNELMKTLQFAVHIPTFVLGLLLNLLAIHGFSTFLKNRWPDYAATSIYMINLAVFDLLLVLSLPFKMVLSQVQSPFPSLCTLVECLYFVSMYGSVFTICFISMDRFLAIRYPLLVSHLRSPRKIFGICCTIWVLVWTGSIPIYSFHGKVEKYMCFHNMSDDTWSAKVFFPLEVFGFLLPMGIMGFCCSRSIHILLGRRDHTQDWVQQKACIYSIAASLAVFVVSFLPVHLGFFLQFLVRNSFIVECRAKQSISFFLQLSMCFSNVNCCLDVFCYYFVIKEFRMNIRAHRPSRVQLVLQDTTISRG
Sequence of Peroxisome proliferator-activated receptor gamma/Nuclear receptor coactivator 1 (P37231 whole entry): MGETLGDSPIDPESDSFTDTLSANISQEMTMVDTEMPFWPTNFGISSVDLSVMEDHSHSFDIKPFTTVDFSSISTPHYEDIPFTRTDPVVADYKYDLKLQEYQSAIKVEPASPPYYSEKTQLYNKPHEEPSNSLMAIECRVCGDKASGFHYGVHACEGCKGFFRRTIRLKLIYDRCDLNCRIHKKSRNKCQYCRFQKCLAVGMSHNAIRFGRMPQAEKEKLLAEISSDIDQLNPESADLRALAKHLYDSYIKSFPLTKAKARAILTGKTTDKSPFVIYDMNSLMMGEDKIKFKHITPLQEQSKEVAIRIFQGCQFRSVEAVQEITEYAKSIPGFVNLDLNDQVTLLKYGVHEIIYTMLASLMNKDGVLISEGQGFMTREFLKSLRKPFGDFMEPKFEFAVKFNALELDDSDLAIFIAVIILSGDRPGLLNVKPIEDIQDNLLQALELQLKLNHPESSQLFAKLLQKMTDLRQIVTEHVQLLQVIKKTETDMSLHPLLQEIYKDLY
Sequence of Peroxisome proliferator-activated receptor gamma/Nuclear receptor coactivator 1 (Q15788 whole entry, further chain): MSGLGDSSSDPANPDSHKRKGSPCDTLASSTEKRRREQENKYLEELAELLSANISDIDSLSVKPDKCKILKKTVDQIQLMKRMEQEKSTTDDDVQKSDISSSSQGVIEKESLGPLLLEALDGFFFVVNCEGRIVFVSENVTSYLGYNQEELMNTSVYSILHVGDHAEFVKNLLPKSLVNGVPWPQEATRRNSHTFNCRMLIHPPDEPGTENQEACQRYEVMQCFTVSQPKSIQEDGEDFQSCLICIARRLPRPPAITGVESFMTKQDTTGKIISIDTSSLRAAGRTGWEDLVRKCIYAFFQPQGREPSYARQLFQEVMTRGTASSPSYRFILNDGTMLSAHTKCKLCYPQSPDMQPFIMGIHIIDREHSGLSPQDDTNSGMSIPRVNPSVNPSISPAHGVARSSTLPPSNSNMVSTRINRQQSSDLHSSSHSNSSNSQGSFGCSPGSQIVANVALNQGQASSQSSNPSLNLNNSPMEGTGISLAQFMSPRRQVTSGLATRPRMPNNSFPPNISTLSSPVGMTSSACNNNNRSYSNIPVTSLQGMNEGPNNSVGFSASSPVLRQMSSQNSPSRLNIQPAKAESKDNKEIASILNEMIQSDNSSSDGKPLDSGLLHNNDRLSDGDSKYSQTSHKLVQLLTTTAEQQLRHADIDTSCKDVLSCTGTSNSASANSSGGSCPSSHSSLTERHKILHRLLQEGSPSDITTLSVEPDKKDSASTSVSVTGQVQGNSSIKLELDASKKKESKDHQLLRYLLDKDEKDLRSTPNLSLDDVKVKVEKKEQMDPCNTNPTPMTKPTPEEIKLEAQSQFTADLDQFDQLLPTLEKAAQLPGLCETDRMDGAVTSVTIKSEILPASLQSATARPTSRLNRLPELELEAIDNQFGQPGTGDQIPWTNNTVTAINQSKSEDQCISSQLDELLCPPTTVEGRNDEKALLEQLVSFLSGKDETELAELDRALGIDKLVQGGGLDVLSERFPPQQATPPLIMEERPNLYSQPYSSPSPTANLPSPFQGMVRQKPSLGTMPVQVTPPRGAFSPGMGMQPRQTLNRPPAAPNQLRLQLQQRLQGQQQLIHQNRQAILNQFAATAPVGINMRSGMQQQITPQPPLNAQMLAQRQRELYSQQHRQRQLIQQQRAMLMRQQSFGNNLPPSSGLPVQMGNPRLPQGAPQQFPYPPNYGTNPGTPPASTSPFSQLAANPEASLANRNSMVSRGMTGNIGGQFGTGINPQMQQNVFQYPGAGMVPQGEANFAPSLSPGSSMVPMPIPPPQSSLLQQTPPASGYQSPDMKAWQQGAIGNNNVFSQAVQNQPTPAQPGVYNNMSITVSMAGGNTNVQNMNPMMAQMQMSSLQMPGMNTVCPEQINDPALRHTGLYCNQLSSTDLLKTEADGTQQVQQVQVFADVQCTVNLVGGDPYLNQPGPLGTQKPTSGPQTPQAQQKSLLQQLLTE
Sequence of Peroxisome proliferator-activated receptor gamma/Nuclear receptor coactivator 2 (P37231 whole entry): as the sequence (P37231 whole entry) above
Sequence of Peroxisome proliferator-activated receptor gamma/Nuclear receptor coactivator 2 (Q15596 whole entry, further chain): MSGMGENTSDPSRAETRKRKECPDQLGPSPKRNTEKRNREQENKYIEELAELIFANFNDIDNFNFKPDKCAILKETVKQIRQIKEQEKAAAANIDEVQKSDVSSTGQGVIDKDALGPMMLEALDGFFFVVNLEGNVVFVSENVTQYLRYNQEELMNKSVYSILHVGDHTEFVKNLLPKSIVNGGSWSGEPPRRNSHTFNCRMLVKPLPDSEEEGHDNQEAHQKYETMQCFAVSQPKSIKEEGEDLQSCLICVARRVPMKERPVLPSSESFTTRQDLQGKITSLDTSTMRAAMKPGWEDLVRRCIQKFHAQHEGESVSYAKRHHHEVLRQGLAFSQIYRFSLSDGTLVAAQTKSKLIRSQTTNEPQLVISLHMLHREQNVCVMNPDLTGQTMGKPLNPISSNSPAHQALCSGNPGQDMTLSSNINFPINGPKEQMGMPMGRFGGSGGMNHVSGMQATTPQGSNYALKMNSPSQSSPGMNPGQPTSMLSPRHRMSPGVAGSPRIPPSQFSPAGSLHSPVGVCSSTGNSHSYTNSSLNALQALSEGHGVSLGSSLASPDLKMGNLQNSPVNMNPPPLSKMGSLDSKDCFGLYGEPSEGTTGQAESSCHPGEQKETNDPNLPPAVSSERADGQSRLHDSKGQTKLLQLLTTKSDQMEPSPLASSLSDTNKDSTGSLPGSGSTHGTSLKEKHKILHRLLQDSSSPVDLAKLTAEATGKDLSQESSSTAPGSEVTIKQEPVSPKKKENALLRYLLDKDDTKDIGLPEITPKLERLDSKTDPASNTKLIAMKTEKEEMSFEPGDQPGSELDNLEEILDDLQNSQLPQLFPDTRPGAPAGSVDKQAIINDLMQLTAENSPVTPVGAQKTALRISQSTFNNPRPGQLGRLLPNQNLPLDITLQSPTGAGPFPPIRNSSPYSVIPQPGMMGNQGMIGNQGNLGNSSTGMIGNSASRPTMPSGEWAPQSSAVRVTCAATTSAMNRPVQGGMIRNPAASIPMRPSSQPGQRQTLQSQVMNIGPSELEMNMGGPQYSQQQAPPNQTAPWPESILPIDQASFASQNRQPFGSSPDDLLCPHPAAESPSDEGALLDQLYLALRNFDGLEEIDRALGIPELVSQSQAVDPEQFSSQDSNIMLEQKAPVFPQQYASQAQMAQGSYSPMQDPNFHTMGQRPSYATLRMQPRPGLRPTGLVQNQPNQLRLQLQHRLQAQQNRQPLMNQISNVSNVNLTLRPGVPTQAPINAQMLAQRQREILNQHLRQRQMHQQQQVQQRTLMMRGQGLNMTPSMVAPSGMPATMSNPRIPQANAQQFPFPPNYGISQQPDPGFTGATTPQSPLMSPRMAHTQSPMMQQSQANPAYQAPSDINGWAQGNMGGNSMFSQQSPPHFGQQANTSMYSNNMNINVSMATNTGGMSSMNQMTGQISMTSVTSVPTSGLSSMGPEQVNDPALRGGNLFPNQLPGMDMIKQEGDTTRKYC

Nc1ccc(N2CCCCC2)c(S(=O)(=O)Nc2ccccc2Cl)c1
IC50 [1]: 3.53 µM (active)

O=C(NNC(=O)c1nn(-c2ccc(F)cc2)ccc1=O)c1ccccc1Cl
IC50 [2]: 4.29 µM (active) | IC50 (Bcl-2-related protein A1): > 20 µM (inactive) | IC50 [3]: 9.9 µM (active)

CCOC(=O)N1CCC(NC(=O)CSc2cc(=O)n(CC)c3ccccc23)CC1
EC50 [4]: > 79.4 µM (not active) | EC50 [5]: > 79.4 µM (not active) | EC50 [6]: > 79.4 µM (inactive)

COc1cccc(-c2ccc(NC(=O)C3CCCN(Cc4cnn(C)c4)C3)cc2)c1 (centres undefined)
IC50 (Vero): 21.9 µM (active)

CCOc1ccccc1NC(=O)C(OC(=O)c1ccc(O)cc1)c1ccccc1 (centres undefined)
IC50 [2]: > 20 µM (inactive) | IC50 (Bcl-2-related protein A1): > 20 µM (inactive) | EC50 [7]: 729 µM (active) | IC50 [3]: 15.2 µM (active) | EC50 [8]: 680 µM (active)

O=C(NC12CC3CC(CC(C3)C1)C2)c1ccc(-c2ccc(Cl)cc2)o1
EC50 [9]: 2.11 µM (active) | IC50 [1]: 0.598 µM (active) | EC50 [10]: > 60 µM (not active)

COc1ccc(C(=O)NC(=S)N(Cc2ccccc2)Cc2ccccc2)cc1
EC50 (Streptococcus): 14.5 µM (active) | IC50 [1]: 4.36 µM (active) | EC50 (Streptokinase A): > 150 µM (not active) | EC50 [11]: 0.883 µM (active)

CCOC(=O)C1CCN(C(=O)CSc2c3c(nc4ccccc24)CCC3)CC1
EC50 [4]: > 79.4 µM (not active) | EC50 [5]: > 79.4 µM (not active) | EC50 [6]: > 79.4 µM (inactive)

O=C(Nc1nc(-c2ccc(S(=O)(=O)N3CCCC3)cc2)cs1)C1COc2ccccc2O1 (centres undefined)
IC50 (Fatty acid synthase): 1.28 µM (active) | EC50 [4]: 27.7 µM (not active) | EC50 [5]: > 79.4 µM (not active) | EC50 [6]: 31 µM (inactive) | IC50 (H9c2): > 79 µM (inactive)

CC(C(=O)Nc1ccccc1)n1sc2ccccc2c1=O (centres undefined)
IC50 (Hexokinase): 8.14 µM (active)

COc1cc(C(=O)CSc2nc(C)cc(C)n2)ccc1O
IC50 [12]: > 100 µM (inactive)

S=C(NCc1ccccn1)NN=Cc1ccccn1
EC50 (Hexokinase-1): > 80 µM (inactive) | EC50 (Hexokinase HKDC1): 27.8 µM (inactive) | IC50 (Nonstructural protein 1): 3.89 µM (active)

COC(=O)c1ccc(Cn2c(O)c(/N=N/C(=N)S)c3ccccc32)o1
IC50 [2]: > 20 µM (inactive) | IC50 (Bcl-2-related protein A1): > 20 µM (inactive) | IC50 [3]: 14.1 µM (active)

Nn1cnnc1N/N=C/c1cc(Br)cc(Br)c1O
EC50 (Hexokinase-1): 42.3 µM (inactive) | EC50 (Hexokinase HKDC1): > 80 µM (inactive) | IC50 (Nonstructural protein 1): 10.7 µM (active)
